Data: patent publication US8357833B2, “Corn plants and seed enhanced for asparagine and protein” (priority 2007, dated 2013)

Experiments:
[1] = biological target: T1, Zea mays asparagine synthetase Zm AsnS1 (SEQ ID NO: 2, encoded by SEQ ID NO: 1) (Zea mays, UniProt B4FFJ0); test: Kinetics of recombinant his-tagged, refolded maize asparagine synthetase AsnS1 (substrate titration, asparagine by HPLC); type: biochemical; details: 100 mM Hepes, pH 8.0, 10 mM MgCl2, read-out: Km(NH4^+)
T1 sequence (B4FFJ0 with tags, fused parts or gaps): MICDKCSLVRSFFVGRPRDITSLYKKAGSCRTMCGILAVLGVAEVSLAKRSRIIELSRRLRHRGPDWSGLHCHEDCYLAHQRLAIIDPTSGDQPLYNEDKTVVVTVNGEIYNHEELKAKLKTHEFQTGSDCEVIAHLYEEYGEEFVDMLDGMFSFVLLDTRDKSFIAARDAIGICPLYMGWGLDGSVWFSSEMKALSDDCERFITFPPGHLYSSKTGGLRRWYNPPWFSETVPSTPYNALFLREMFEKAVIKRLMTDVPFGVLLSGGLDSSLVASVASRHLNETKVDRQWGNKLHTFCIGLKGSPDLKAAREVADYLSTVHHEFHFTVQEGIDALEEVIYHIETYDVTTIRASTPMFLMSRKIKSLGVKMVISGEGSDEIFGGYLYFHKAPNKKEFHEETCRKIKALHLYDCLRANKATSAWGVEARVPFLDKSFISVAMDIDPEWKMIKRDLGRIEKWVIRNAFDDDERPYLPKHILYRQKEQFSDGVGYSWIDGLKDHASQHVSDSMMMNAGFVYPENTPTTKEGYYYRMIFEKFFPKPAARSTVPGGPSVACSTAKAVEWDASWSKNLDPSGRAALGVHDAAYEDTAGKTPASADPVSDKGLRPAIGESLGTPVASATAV
Protocol: (§1) The effect of expression of asparagine synthetase genes on asparagine synthetase activity was measured in transgenic events of pMON79706 and pMON92870. Frozen, ground leaf tissue was aliquoted (200-400 mg) into wells from a precooled 96 deep-well plate. Protein was extracted in Buffer A (100 mM Hepes-OH, pH 8.0, 0.1 mM EDTA, 10 mM MgCl2, 2 mM aspartate, 0.5 mM DTT, 67 mM mercaptoethanol, 20% (v/v) glycerol, 0.1 mM ATP, 1% (v/v) P9599 (Sigma Company), 25 mM KCl). A small amount of sand was added to each well. Buffer A was then added to the leaf tissue in the wells at a ratio of 4:1 (buffer:tissue). The plates were then agitated in a paint shaker for 2 min. to mix the sample and then centrifuged at 5000×g for 10 minutes. The supernatant (100-200 μL) was desalted in a 96-well macro spin plate (SNS S025L, The Nest Group Inc., Southboro, Mass.) equilibrated in buffer A. The supernatant was then either assayed immediately or frozen in liquid nitrogen and maintained at −80° C. until used. […] The mixture was then filtered to remove precipitate and asparagine was measured by HPLC. […]

[2] = biological target: T2, Zea mays asparagine synthetase Zm AsnS2 (SEQ ID NO: 4, encoded by SEQ ID NO: 3) (Zea mays, UniProt B5U8J7); test: Kinetics of recombinant his-tagged, refolded maize asparagine synthetase AsnS2 (substrate titration, asparagine by HPLC); type: biochemical; details: Zm AsnS2; 100 mM Hepes, pH 8.0, 10 mM MgCl2; read-out: Km(NH4^+)
T2 construct: 606 aa
T2 sequence (B5U8J7 1-606): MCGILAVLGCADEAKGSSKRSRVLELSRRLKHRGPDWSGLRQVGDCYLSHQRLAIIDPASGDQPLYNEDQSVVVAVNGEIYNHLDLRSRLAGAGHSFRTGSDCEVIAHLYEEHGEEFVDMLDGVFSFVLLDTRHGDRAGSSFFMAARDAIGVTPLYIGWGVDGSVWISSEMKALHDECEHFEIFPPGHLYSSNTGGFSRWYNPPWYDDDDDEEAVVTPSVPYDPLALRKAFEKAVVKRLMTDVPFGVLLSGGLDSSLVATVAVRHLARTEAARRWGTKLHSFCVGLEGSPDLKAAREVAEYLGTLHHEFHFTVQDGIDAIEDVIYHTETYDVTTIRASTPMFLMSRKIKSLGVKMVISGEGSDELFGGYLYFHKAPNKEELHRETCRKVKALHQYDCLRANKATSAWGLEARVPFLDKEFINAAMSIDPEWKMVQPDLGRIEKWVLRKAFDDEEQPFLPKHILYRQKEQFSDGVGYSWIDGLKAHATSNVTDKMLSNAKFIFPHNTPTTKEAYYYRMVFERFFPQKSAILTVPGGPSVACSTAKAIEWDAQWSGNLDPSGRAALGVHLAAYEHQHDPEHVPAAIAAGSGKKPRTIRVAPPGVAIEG
Protocol: as §1

N [NH4^+] showed a Km [1] of 9.9 mM and a Km [2] of 0.75 mM.
